pIC50: −log10 of the molar value.

The target in the first experiment is TAF1-BD2 (Homo sapiens (Human), UniProt P21675). Nature of the experiment: TAF1-BD2 TR-FRET Binding Assay. To be noted: Assay: TAF-1. In general terms: TR-FRET usually uses a lanthanide donor and a delayed reading to cut background.
Sequence of TAF1-BD2 (P21675 1525-1656 limits assumed): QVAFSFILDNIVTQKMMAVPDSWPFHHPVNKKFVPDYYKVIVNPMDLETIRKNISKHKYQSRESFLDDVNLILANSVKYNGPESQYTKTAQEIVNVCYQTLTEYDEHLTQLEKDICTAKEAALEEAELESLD
Description: Specifically, in a 384 well ProxiPlate TAF1-BD2 (6 nM final) was combined with biotin-ligand (50 nM final) in 50 mM HEPES (pH 7.5), 50 mM NaCl, 1 mM TCEP, 0.01% (w/v) BSA, and 0.008% (w/v) Brij-35 either in the presence of DMSO (final 0.2% DMSO) or compound dilution series in DMSO. After 10 minutes incubation at room temperature, a mixture Eu-W1024 Anti-6×His antibody (Perkin Elmer AD0110) and SureLight™ Allophycocyanin-Streptavidin (APC-SA, Perkin Elmer CR130-100) were added to a final concentrations of 0.2 nMolar antibody and 25 nMolar APC-SA, respectively. After twenty minutes of equilibration, the plates were read on an Envision instrument and IC50s calculated using a four parameter non-linear curve fit.
Consider `CC(C)=CCn1cc(-c2cccc(C(=O)N(C)C)c2)c2cc[nH]c2c1=O` [Example 3, N,N-dimethyl-3-[6-(3-methylbut-2-enyl)-7-oxo-1H-pyrrolo[2,3-c]pyridin-4-yl]benzamide], for which the pIC50 is 5.28. Same read-out and setting: the value for `CN(C)C(=O)c1cccc(-c2cn(CC3CC3)c(=O)c3[nH]ccc23)c1` [Example 17, 3-[6-(cyclopropylmethyl)-7-oxo-1H-pyrrolo[2,3-c]pyridin-4-yl]-N,N-dimethyl-benzamide] was 5.25; that for `C/C=C/Cn1cc(-c2cccc(C(=O)NC)c2)c2cc[nH]c2c1=O` [Example 25, 3-[6-[(E)-but-2-enyl]-7-oxo-1H-pyrrolo[2,3-c]pyridin-4-yl]-N-methyl-benzamide] was 6.19. Same read-out and setting: the value for `C/C=C/Cn1cc(-c2ccc(CO)cc2)c2cc[nH]c2c1=O` [Example 29, 6-[(E)-but-2-enyl]-4-[4-(hydroxymethyl)phenyl]-1H-pyrrolo[2,3-c]pyridin-7-one] was 5.35; that for `C/C=C/Cn1cc(-c2ccc(C(=O)N(C)C)c(Cl)c2)c2cc[nH]c2c1=O` [Example 43, 4-[6-[(E)-but-2-enyl]-7-oxo-1H-pyrrolo[2,3-c]pyridin-4-yl]-2-chloro-N,N-dimethyl-benzamide] was 5.70.

Another experiment concerns the target BRD4(BD1) (Homo sapiens (Human), UniProt O60885). As to the kind of experiment: BRD4 AlphaLisa Binding Assay.
Settings: not given
In general terms: In Alpha technology, singlet oxygen from a donor bead excites a nearby acceptor bead.
As for `CN(C)C(=O)c1cccc(-c2cn(CCC3CC3)c(=O)c3[nH]ccc23)c1` [Example 4, 3-[6-(2-cyclopropylethyl)-7-oxo-1H-pyrrolo[2,3-c]pyridin-4-yl]-N,N-dimethyl-benzamide], the pIC50 is 5.68. `CN(C)C(=O)c1cccc(-c2cn(CC3CCCC3)c(=O)c3[nH]ccc23)c1` [Example 5, 3-[6-(cyclopentylmethyl)-7-oxo-1H-pyrrolo[2,3-c]pyridin-4-yl]-N,N-dimethyl-benzamide] gave a pIC50 of 5.19.

`CC/C=C/Cn1cc(-c2cccc(C(=O)N(C)C)c2)c2cc[nH]c2c1=O` [Example 7, N,N-dimethyl-3-[7-oxo-6-[(E)-pent-2-enyl]-1H-pyrrolo[2,3-c]pyridin-4-yl]benzamide] showed a pIC50 of 5.57. The molecule `CN(C)C(=O)c1cccc(-c2cn(CC3CCCCC3)c(=O)c3[nH]ccc23)c1` [Example 9, 3-[6-(cyclohexylmethyl)-7-oxo-1H-pyrrolo[2,3-c]pyridin-4-yl]-N,N-dimethyl-benzamide] gave a pIC50 of 4.82. Same read-out and setting: with `CN(C)C(=O)c1cccc(-c2cn(CC3CCC3)c(=O)c3[nH]ccc23)c1` [Example 11, 3-[6-(cyclobutylmethyl)-7-oxo-1H-pyrrolo[2,3-c]pyridin-4-yl]-N,N-dimethyl-benzamide] the figure was 5.44.

`CN(C)C(=O)c1cccc(-c2cn(CCC3CCCCC3)c(=O)c3[nH]ccc23)c1` [Example 12, 3-[6-(2-cyclohexylethyl)-7-oxo-1H-pyrrolo[2,3-c]pyridin-4-yl]-N,N-dimethyl-benzamide] gave a pIC50 of 4.92. In turn, `CCCCCn1cc(-c2cccc(C(=O)N(C)C)c2)c2cc[nH]c2c1=O` [Example 13, N,N-dimethyl-3-(7-oxo-6-pentyl-1H-pyrrolo[2,3-c]pyridin-4-yl)benzamide] gave a pIC50 of 5.35. The same measure, in the same setting: with `CC(C)Cn1cc(-c2cccc(C(=O)N(C)C)c2)c2cc[nH]c2c1=O` [Example 16, 3-(6-isobutyl-7-oxo-1H-pyrrolo[2,3-c]pyridin-4-yl)-N,N-dimethyl-benzamide] the figure was 5.10. In turn, `C/C=C/Cn1cc(-c2ccc(C(N)=O)c(F)c2)c2cc[nH]c2c1=O` [Example 20, 4-[6-[(E)-but-2-enyl]-7-oxo-1H-pyrrolo[2,3-c]pyridin-4-yl]-2-fluoro-benzamide] showed a negative logarithm of the IC50 (pIC50) of 6.05. This pIC50 lies 0.95 log units higher than the previous one. Still for that read-out and setting: the value for `C/C=C/Cn1cc(-c2ccc(C(C)(C)C)cc2)c2cc[nH]c2c1=O` [Example 23, 6-[(E)-but-2-enyl]-4-(4-tert-butylphenyl)-1H-pyrrolo[2,3-c]pyridin-7-one] was 5.68; that for `C/C=C/Cn1cc(-c2cccc(C(=O)NC3CC3)c2)c2cc[nH]c2c1=O` [Example 26, 3-[6-[(E)-but-2-enyl]-7-oxo-1H-pyrrolo[2,3-c]pyridin-4-yl]-N-cyclopropyl-benzamide] was 6.08.

With `C/C=C/Cn1cc(-c2ccc(C(=O)NC3CC3)cc2)c2cc[nH]c2c1=O` [Example 28, 4-[6-[(E)-but-2-enyl]-7-oxo-1H-pyrrolo[2,3-c]pyridin-4-yl]-N-cyclopropyl-benzamide], the pIC50 was 6.29. `C/C=C/Cn1cc(-c2ccc(C(C)C)cc2)c2cc[nH]c2c1=O` [Example 31, 6-[(E)-but-2-enyl]-4-(4-isopropylphenyl)-1H-pyrrolo[2,3-c]pyridin-7-one]: the pIC50 is 5.80.

For the molecule `C/C=C/Cn1cc(-c2cccc(C(N)=O)c2F)c2cc[nH]c2c1=O` [Example 39, 3-[6-[(E)-but-2-enyl]-7-oxo-1H-pyrrolo[2,3-c]pyridin-4-yl]-2-fluoro-benzamide], the pIC50 was 5.92. As to `C/C=C/Cn1cc(-c2cc(C(N)=O)ccc2F)c2cc[nH]c2c1=O` [Example 40, 3-[6-[(E)-but-2-enyl]-7-oxo-1H-pyrrolo[2,3-c]pyridin-4-yl]-4-fluoro-benzamide], the negative-log IC50 (pIC50) was 5.74. Still for that read-out and setting: with `C/C=C/Cn1cc(-c2cc(C(=O)NC3CC3)ccc2OC)c2cc[nH]c2c1=O` [Example 63, 3-[6-[(E)-but-2-enyl]-7-oxo-1H-pyrrolo[2,3-c]pyridin-4-yl]-N-cyclopropyl-4-methoxy-benzamide] the figure was 6.01. In the case of `C/C=C/Cn1cc(-c2cc(C(=O)NC3CCOC3)ccc2OC)c2cc[nH]c2c1=O` (stereo not drawn) [Example 65, 3-[6-[(E)-but-2-enyl]-7-oxo-1H-pyrrolo[2,3-c]pyridin-4-yl]-4-methoxy-N-tetrahydrofuran-3-yl-benzamide], the pIC50 is 5.80. For the molecule `C/C=C/Cn1cc(-c2cc(C(=O)NCC(F)F)ccc2OC)c2cc[nH]c2c1=O` [Example 69, 3-[6-[(E)-but-2-enyl]-7-oxo-1H-pyrrolo[2,3-c]pyridin-4-yl]-N-(2,2-difluoroethyl)-4-methoxy-benzamide], the pIC50 was 6.49. This pIC50 is 0.69 log units higher than that of the molecule before. Take `C/C=C/Cn1cc(-c2cc(C(=O)NC3CCC3)ccc2OC)c2cc[nH]c2c1=O` [Example 75, 3-[6-[(E)-but-2-enyl]-7-oxo-1H-pyrrolo[2,3-c]pyridin-4-yl]-N-cyclobutyl-4-methoxy-benzamide]: the negative-log IC50 (pIC50) was 5.89.

`C/C=C/Cn1cc(-c2cc(C(=O)NCC3CC3)ccc2OC)c2cc[nH]c2c1=O` [Example 76, 3-[6-[(E)-but-2-enyl]-7-oxo-1H-pyrrolo[2,3-c]pyridin-4-yl]-N-(cyclopropylmethyl)-4-methoxy-benzamide] showed a pIC50 of 5.92. As for `C/C=C/Cn1cc(-c2ccc3c(c2)NC(C)CC(=O)N3)c2cc[nH]c2c1=O` (stereo not drawn) [Example 84, 7-[6-[(E)-but-2-enyl]-7-oxo-1H-pyrrolo[2,3-c]pyridin-4-yl]-4-methyl-1,3,4,5-tetrahydro-1,5-benzodiazepin-2-one], the negative logarithm of the IC50 (pIC50) is 5.72. Same read-out and setting: with `CCCCn1cc(-c2cccc(C(=O)N(C)C)c2)c2cc(C)[nH]c2c1=O` [Example 86, 3-(6-butyl-2-methyl-7-oxo-1H-pyrrolo[2,3-c]pyridin-4-yl)-N,N-dimethyl-benzamide] the figure was 5.64.

The target in a further experiment is BRD9 (Homo sapiens (Human), UniProt Q9H8M2). As to the kind of experiment: BRD9 AlphaLisa Binding Assay.
Sequence of BRD9 (Q9H8M2 134-239 limits assumed): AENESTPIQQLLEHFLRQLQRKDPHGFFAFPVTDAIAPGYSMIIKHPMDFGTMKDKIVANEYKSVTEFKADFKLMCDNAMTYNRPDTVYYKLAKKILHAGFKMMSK
Settings: not given
As to the method:
After 20 minutes incubation at room temperature AlphaLisa Streptavidin Acceptor Beads (Perkin-A[…]) and AlphaLisa Nickel donor beads (Perkin AS 10 ID) were added to a final concentration of 15 ug/mL each.
`C/C=C/Cn1cc(-c2ccc(C(=O)N3CCOCC3)c(OC(C)C)c2)c2cc(C)[nH]c2c1=O` [Example 114, 6-[(E)-but-2-enyl]-4-[3-isopropoxy-4-(morpholine-4-carbonyl)phenyl]-2-methyl-1H-pyrrolo[2,3-c]pyridin-7-one] had a negative-log IC50 (pIC50) of 8.52. Still for that read-out and setting: the value for `C/C=C/Cn1cc(-c2ccc(C(=O)N3CCOCC3)c(OCC3CC3)c2)c2cc(C)[nH]c2c1=O` [Example 115, 6-[(E)-but-2-enyl]-4-[3-(cyclopropylmethoxy)-4-(morpholine-4-carbonyl)phenyl]-2-methyl-1H-pyrrolo[2,3-c]pyridin-7-one] was 8.30. The molecule `C/C=C/Cn1cc(-c2ccc(C(=O)N3CCNCC3)c(Cl)c2)c2cc(C)[nH]c2c1=O` [Example 116, (E)-6-(but-2-en-1-yl)-4-(3-chloro-4-(piperazine-1-carbonyl)phenyl)-2-methyl-1H-pyrrolo[2,3-c]pyridin-7(6H)-one] had a pIC50 of 8.40. The pIC50 values of the last two molecules are within 0.2 log units of each other. The same measure, in the same setting: with `C/C=C/Cn1cc(-c2ccc(C(=O)N3CC(n4ccc(N)n4)C3)c(Cl)c2)c2cc(C)[nH]c2c1=O` [Example 117, (E)-4-(4-(3-(3-amino-1H-pyrazol-1-yl)azetidine-1-carbonyl)-3-chlorophenyl)-6-(but-2-en-1-yl)-2-methyl-1H-pyrrolo[2,3-c]pyridin-7(6H)-one] the figure was 8.30. On the same count and under the same terms, the value for `C/C=C/Cn1cc(-c2ccc(C(=O)N3CC(n4ccc(N)n4)C3)cc2)c2cc(C)[nH]c2c1=O` [Example 118, 4-[4-[3-(3-aminopyrazol-1-yl)azetidine-1-carbonyl]phenyl]-6-[(E)-but-2-enyl]-2-methyl-1H-pyrrolo[2,3-c]pyridin-7-one] was 8.05. Same read-out and setting: the value for `C/C=C/Cn1cc(-c2cc(C(=O)NCc3cncnc3)ccc2OC)c2cc(C)[nH]c2c1=O` [Example 120, 3-[6-[(E)-but-2-enyl]-2-methyl-7-oxo-1H-pyrrolo[2,3-c]pyridin-4-yl]-4-methoxy-N-(pyrimidin-5-ylmethyl)benzamide] was 8.52; that for `CCCCn1cc(-c2cc(OC)c(C(=O)N3CCOCC3)cc2OC)c2cc(C)[nH]c2c1=O` [Example 121, 6-butyl-4-[2,5-dimethoxy-4-(morpholine-4-carbonyl)phenyl]-2-methyl-1H-pyrrolo[2,3-c]pyridin-7-one] was 7.77; that for `CCCCn1cc(-c2ncc(C(=O)N3CCN(C)CC3)cc2OC)c2cc(C)[nH]c2c1=O` [Example 122, 6-butyl-4-[3-methoxy-5-(4-methylpiperazine-1-carbonyl)-2-pyridyl]-2-methyl-1H-pyrrolo[2,3-c]pyridin-7-one] was 6.74.

With `CCCCn1cc(-c2ncc(C(=O)N3CCOCC3)cc2OC)c2cc(C)[nH]c2c1=O` [Example 123, 6-butyl-4-[3-methoxy-5-(morpholine-4-carbonyl)-2-pyridyl]-2-methyl-1H-pyrrolo[2,3-c]pyridin-7-one], the negative logarithm of the IC50 (pIC50) is 6.68. This pIC50 and that of the molecule before are within 0.2 log units of each other.

As a reminder, the pIC50 is −log10 of the IC50, conventionally taken in molar units. A lower pIC50 goes with a high IC50.

The values are drawn from patent US10183009B2, “Therapeutic compounds and uses thereof” (GENENTECH, INC., priority 2014, dated 2019).
